Experimental findings from patent US20220354835A1, “COMPOUNDS FOR DEGRADING TAU PROTEIN AGGREGATES AND USES THEREOF” (Aprinoia Therapeutics Limited, priority 2019, published 2022) are described below.

Structures are written as SMILES. pIC50, pKd: −log10 of the molar value. Bounds are passed on as bounds.

Assay [1] concerns the target T1, heparin-induced aggregated tau (aTau), full-length 2N4R human Tau (Homo sapiens, UniProt P10636).
T1 construct: transformed with a full-length 2N4R tau expression plasmid; made in house; host or cells: E. coli BL21
Nature of the assay: PBB5 competition assay. Type of assay: binding. The following applies: 0.12 μM aTau; for pIC50: 0.1 μM PBB5, 37° C. 1 hour, PBB5 fluorescence 530/690 nm; for Emax: 0.1 μM PBB5, compound up to 10 μM, read-out: Competition Assay with PBB5: Bmax (%). The protocol: (§1) (A) Expression and purification of human Tau: 1 mM IPTG (Sangon Biotech, Cat. No A100487) was used to induce production of tau by bacteria (BL21, Invitrogen, Cat. No C600003) transformed with a full-length 2N4R tau expression plasmid. After 3 hours, cell pellet was resuspended in lysis buffer (100 mM PIPES, 1 mM EGTA, 1 mM MgSO4, pH 6.8) and lysed by sonication followed by centrifugation (15,000 rpm, 15 min, 4° C.). The supernatant was then placed in a boiling water bath for 20 min, followed by centrifugation (15,000 rpm, 15 min, 4° C.). Supernatant was loaded onto a Q-Sepharose® Fast Flow column (GE healthcare, Cat. No 17-0510-01), the flow-through fraction was loaded onto an SP-Sepharose® Fast Flow column (GE healthcare, Cat. No 17-0729-01), and tau protein was eluted with elution buffer (100 mM PIPES, 1 M NaCl, 1 mM EGTA, 1 mM MgSO4, 0.2 M NaCl, pH 6.8). Collected fractions of tau-containing eluates were pooled, concentrated and dialyzed against HEPES buffer (25 mM HEPES, 0.1 mM EDTA, 0.5 mM DTT, 100 mM NaCl, pH 7.2) and stored at −80° C. in small aliquots until use. Protein concentration was determined by UV absorption.
(§2) (B) Preparation of heparin-induced aggregated tau (aTau): 2 μM of tau prepared in 30 mM Tris-HCl, pH 7.5 buffer was incubated in tube with 15 μM heparin (Sigma, Cat. No H3149) at 37° C. for 24 hours.
(E) PBBS competition assay: 2 μM of aTau was diluted to 0.12 μM by […] (pH 6.8) and then incubated with 0.1 μM 2-(4-(2-(methylamino)pyridine-5-yl)-1,3-butadiene-1-yl)benzothiazole-6-ol (PBB5) and serially diluted compound (three-fold serial dilution, from 10 to 0.00017 μM) in a 96-well plate (Corning, Cat. No 3573) at 37° C. for 1 hour. Fluorescence intensity (excitation/emission=530/690 nm) of PBB5 was read by microplate spectrometer (EnSpire 2300, PerkinElmer). Percentage of competition was calculated using the following equation: (Max−well of compound alone)/(Max−Min)*100%, where Max=(Tau+PBB5) signals−(buffer+PBB5) signals; and Min=(buffer+PBB5) signals−(buffer+PBB5) signals.
The IC50 value of each compound was calculated with GraphPad Prism software using the “4 Parameter Logistic Model or Sigmoidal Dose-Response Model”:
Y=Bottom+(Top−Bottom)/(1+(IC50/×)^HillSlope)

For assay [2], the target named is T2, Tau aggregates in P301L-Tau-FL-GFP HEK293 cells (Homo sapiens, UniProt P10636, P618L).
T2 construct: express full-length human tau T40 (2N4R) carrying the P301L mutation with a GFP tag; expressed in transfected cells
T2 sequence (P10636 1-441 isoform P10636-8 P301L): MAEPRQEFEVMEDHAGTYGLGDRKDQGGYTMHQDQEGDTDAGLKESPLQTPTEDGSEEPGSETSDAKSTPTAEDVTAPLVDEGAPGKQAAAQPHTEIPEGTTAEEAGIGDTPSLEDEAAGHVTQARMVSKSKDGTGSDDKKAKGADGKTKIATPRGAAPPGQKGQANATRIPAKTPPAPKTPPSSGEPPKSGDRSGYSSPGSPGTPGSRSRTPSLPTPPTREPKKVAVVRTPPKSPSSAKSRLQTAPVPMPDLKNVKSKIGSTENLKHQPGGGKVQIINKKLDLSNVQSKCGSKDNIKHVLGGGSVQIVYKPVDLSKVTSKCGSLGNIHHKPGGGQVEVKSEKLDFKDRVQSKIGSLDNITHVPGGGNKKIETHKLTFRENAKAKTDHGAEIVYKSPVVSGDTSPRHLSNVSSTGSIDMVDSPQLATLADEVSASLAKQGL
Nature of the assay: Tau degradation assay (APNmAb005 ELISA-based Tau aggregation assay). It is filed as cell-based. The following applies: 1 μM of compound, 24 hours, P301L-Tau-FL-GFP HEK293 cells seeded with rTg4510 brain lysate; read-out: Activity (reduction of tau aggregates). On the procedure: (A). Cell-based model of Tau inclusion formation: Six month old rTg4510 mouse brain lysates were used as the source of tau seeds, prepared as described in Example 26 above. P301L-Tau-FL-GFP HEK293 cells represent HEK293 cells express full-length human tau T40 (2N4R) carrying the P301L mutation with a GFP tag (P301L-Tau-FL-GFP). 1×10^6 of P301L-Tau-FL-GFP HEK293 cells were cultured on a 6-well plate in culture medium containing DMEM/F-12 (Gibco) supplemented with 10% fetal bovine serum (FBS) (Gibco), 1% Penicillin-Streptomycin (Gibco) and 0.5 mg/ml geneticin (Thermo Fisher Scientific) for 24 hours to reach 70-90% confluency, indicating the cells were ready for transfection. 50 μg of 6-month-old rTg4510 mouse brain lysate was diluted in 400 μL of serum free medium and mixed with 16 μL of lipofectamine 3000 reagent (Thermo Fisher Scientific) diluted in 400 μl of serum free medium. A solution mixture of rTg4510 brain lysate and lipofectamine 3000 was incubated at room temperature for 25 min. The culture media were removed, and then a solution mixture of rTg4510 lysate and lipofectamine 3000 was added to the cells for transfection. The solution mixture was incubated at room temperature for five hours, followed by medium change to 10% fetal bovine serum (FBS). After two-day incubation, Tau aggregates (Tau spots) were induced and images were acquired by ImageXpress Micro Confocal high-content imaging system (Molecular Devices) as described in Example 52 above. Analysis was performed by two customized modules in MetaXpress software (Molecular Devices) for aggregated tau analysis. Output included cell numbers, numbers of tau spots, average intensity of tau spots, and average size of tau spots.
(B). Compound treatment: 100 μL of 3×10^4 cells comprising Tau aggregates, prepared as described above in step (A), were plated on a 96-well plate coated with poly-D-lysine (BD Biosciences) and cultured for 24 hours. Compounds to be tested were dissolved in culture medium containing 0.1% DMSO. Each of test compounds in the concentration of 1, 0.2 and 0.04 μM was added to the cells comprising Tau aggregates and incubated at 37° C. for 24 hours. After that, culture medium was removed, cells were washed with PBS solution and then lysed using 30 μL of lysis buffer (PBS containing 0.3% Triton X-100 and 400 mM NaCl) for one hour at 4° C., and then cell lysate was diluted by 170 μl of PBS containing 400 mM NaCl. Cell lysate was filtrated by a […] filtration plate (Pall) and applied for Tau aggregation assay.
(C). Control cell lysate: control cell lysate was collected from non-seeded cells.
(D). ELISA-based Tau aggregation assay: APNmAb005 ELISA kit for Tau aggregation assay was designed and developed to detect abnormal tau aggregates in buffered solution or cell lysate by using anti-Tau APNmab005 as capture and detection antibody. This antibody is a highly specific antibody bound to human tau aggregates accumulated in mammalian cells. APNmAb005 is recited in PCT Patent Application No. PCT/M2020/057415, filed Aug. 5, 2020, which is incorporated herein by reference.
0.15 μg of APNmAb005 in 100 mM sodium carbonate buffer (pH 9.6) was coated on a high-binding polystyrene 96-well microplate (Greiner Bio-One) at 4° C. overnight. The microplate was washed with PBS followed by treatment with Intercept (PBS) blocking buffer (LI-COR) at room temperature for 2 hours. After that, the microplate was washed with PBS, and then the cell lysate with compound treatment, prepared as described above in step (C), was added into each well of the microplate and incubated at room temperature for 2 hours. The microplate was washed with PBS and then incubated with HRP-conjugated secondary antibody APNmAb005 at room temperature for 3 hours. HRP-conjugated secondary antibody APNmAb005 was prepared using HRP conjugation kit (Abcam,ab102890). The microplate was then washed with PBS and incubated with 100 μL of horseradish peroxidase (HRP) substrate at room temperature. […]
In general terms: ELISA stands for enzyme-linked immunosorbent assay.

Assay [3] has as its target T1, heparin-induced aggregated tau (aTau), full-length 2N4R human Tau. Nature of the assay: In vitro fluorometric aTau binding assay. The following applies: 0.04 μM aTau, serially diluted compound 10 to 0.00017 μM, 37° C. 1 hour, fluorescence. On the procedure: as §1, §2
(D) In vitro fluorometric aTau binding assays: 2 μM aTau was diluted to 0.04 μM with 30 mM Tris-HCl (pH 6.8), and then incubated with serially diluted compound (three-fold serial dilutions, from 10 to 0.00017 μM) in a 96-well plate (Corning, Cat. No 3573) at 37° C. for 1 hour. Fluorescence intensity (excitation/emission=370/500 nm) of APN-0729 was read by microplate spectrometer (EnSpire 2300, PerkinElmer). Compound Kd values were calculated using the following equation: Y=Bmax* X (Kd+X), where X is the concentration of compound; Y is the fluorescence signal of (compound+aTau)−(compound+DMSO); and Bmax is the maximum signal.

As a reminder, the pIC50 is the negative decadic logarithm of the IC50, by convention in mol/L. A high value points to a low IC50. The pKd is the Kd on a negative log10 scale, so that one unit is a factor of ten.

T1 sequence (P10636 1-441 isoform P10636-8): as the sequence (P10636 1-441 isoform P10636-8 P301L) above, with L301P counted along it

As for `CN(C)c1ccc(-c2ccc(-c3nc4ccc(NCCOCCOCCOCCOCCOCCOc5ccc6c(c5)C(=O)N(C5CCC(=O)NC5=O)C6=O)cc4s3)cc2)cn1` (centres unmarked) [Compound 159985, 2-[2,6-bis(oxo)piperidin-3-yl]-5-[2-[2-[2-[2-[2-[2-[[2-[4-[6-(dimethylamino)-pyridin-3-yl]phenyl]-1,3-benzothiazol-6-yl]amino]ethoxy]ethoxy]ethoxy]ethoxy]ethoxy]-ethoxy]isoindole-1,3-dione], in assay [1], the pIC50 was 6.49 and the Emax was 71%. For the same compound, the inhibition at 1 µM in assay [2] was under 10%. Moreover, the pKd in assay [3] is 7.00.

`CN(C)c1ccc(-c2ccc(-c3nc4ccc(NCCOCCOc5ccc6c(c5)C(=O)N(C5CCC(=O)NC5=O)C6=O)cc4s3)cc2)cn1` (centres unmarked) [Compound 160219, 2-[2,6-bis(oxo)piperidin-3-yl]-5-[2-[2-[[2-[4-[6-(dimethylamino)pyridin-3-yl]phenyl]-1,3-benzothiazol-6-yl]amino]ethoxy]ethoxy]isoindole-1,3-dione]: in assay [1], the pIC50 was 6.82 and the Emax amounted to 69%. In assay [2], the inhibition at 1 µM is under 10%. Also, the pKd in assay [3] is 6.96.

In the case of `CN(C)c1ccc(-c2ccc(-c3nc4ccc(NCCOCCOCCOCCOCCOCCOc5ccc6c(c5)CN(C5CCC(=O)NC5=O)C6=O)cc4s3)cc2)cn1` (centres unmarked) [Compound 160273, 3-[6-[2-[2-[2-[2-[2-[2-[[2-[4-[6-(dimethylamino)pyridin-3-yl]phenyl]-1,3-benzothiazol-6-yl]amino]ethoxy]ethoxy]ethoxy]ethoxy]ethoxy]ethoxy]-3-oxidanylidene-1H-isoindol-2-yl]piperidine-2,6-dione], in assay [1], the pIC50 is 6.57 and the Emax stood at 59%. Moreover, in assay [2], the inhibition at 1 µM is under 10%. The same compound showed a pKd in assay [3] of 6.33.

Take `CN(C)c1ccc2nc(-c3ccc(-c4ccc(NCCOCCOCCOCCOCCOCCOc5ccc6c(c5)CN(C5CCC(=O)NC5=O)C6=O)nc4)cc3)sc2c1` (centres unmarked) [Compound 160383, 3-[6-[2-[2-[2-[2-[2-[2-[[5-[4-[6-(dimethylamino)-1,3-benzothiazol-2-yl]-phenyl]pyridin-2-yl]amino]ethoxy]ethoxy]ethoxy]ethoxy]-ethoxy]ethoxy]-3-oxo-1H-isoindol-2-yl]piperidine-2,6-dione]: in assay [1], the pIC50 is 6.57 and the Emax was 80%. The inhibition at 1 µM in assay [2] is under 10%. The pKd in assay [3] is 6.26.

For the compound `CN(C)c1ccc(-c2ccc(-c3cn4cc(OCCOCCOCCOCCOCCOCCOc5ccc6c(c5)C(=O)N(C5CCC(=O)NC5=O)C6=O)ccc4n3)cc2)c(F)n1` (centres unmarked) [Compound 160744, 2-[2,6-bis(oxo)piperidin-3-yl]-5-[2-[2-[2-[2-[2-[2-[2-[4-[6-(dimethyl-amino)-2-fluoro-pyridin-3-yl]phenyl]imidazo[1,2-a]pyridin-6-yl]oxyethoxy]ethoxy]ethoxy]-ethoxy]ethoxy]ethoxy]isoindole-1,3-dione], in assay [1], the pIC50 is 5.22 and the Emax is 113%. Besides, the inhibition at 1 µM in assay [2] was 10 to 20%. The same compound gave a pKd in assay [3] of 6.82.
